From US20230181628A1 (priority 2020, published 2023) come the findings set out here.

Read-outs that look alike come from different tables or passages of the source.

Test [1] can be described thus: Lewis acidity measuring method (1): reaction rate constant of reaction between CoTPP and oxygen in the presence of a Lewis acid. It counts as physicochemical.
A further test relates to colon cancer cells HT116. As to conditions: 60 minutes incubation, 48 hours culture.
Another test has as its system colon cancer cells HT29. As to conditions: 60 minutes incubation, 48 hours culture.
The subject of test [2] is tongue cancer cells HSC-3. As to conditions: 60 minutes incubation, 48 hours culture.
Test [3] deals with UM-UC-3 cells.
In test [4] the test system is UM-UC-3 cells. As to conditions: 500 ppm NaClO2 for 120 minutes, then 24 hours culture; PBS Control 14.6%.
Test [5] deals with oral cancer cells HO-1-u-1. As to conditions: 60 minutes incubation, 48 hours culture.
Test [6] concerns UM-UC-3 cells. The source holds these as a separate data set.
Test [7] has as its system pancreatic cancer cells PK05. As to conditions: 48 hours.
Test [8] has as its system pancreatic cancer cells PK10. As to conditions: 48 hours.
Test [9] deals with UM-UC-3 cells. As to conditions: 500 ppm NaClO2 for 120 minutes.
Test [10] deals with bladder cancer clinical specimen-derived tumor.
Test [11] relates to various bladder cancer cells (UM-UC-3, UM-UC-2, EJ-1, BOY-12E, 5637). As to conditions: 120 minutes incubation.
The subject of test [12] is UM-UC-3 cells. As to conditions: 500 ppm NaClO2 for 120 minutes, then 24 hours culture; vs PBS group.
[13] abbreviates: concentration of 31 ppm or more.

For `CCCC[N+](CCCC)(CCCC)CCCC.F[P-](F)(F)(F)(F)F` [tetrabutylammonium hexafluorophosphate], the “kcat (reaction rate constant of reaction between CoTPP and oxygen in the presence of a Lewis acid)” value in test [1] is more than 0.1 M^−2 s^−1.

As to benzalkonium chloride, the “kcat (reaction rate constant of reaction between CoTPP and oxygen in the presence of a Lewis acid)” value in test [1] (acetonitrile, saturated O2, room temperature) worked out at 0.18 M^−2 s^−1.

In the case of sodium chlorite [NaClO2], the “viability / proliferation of cancer cells” value (in the test with colon cancer cells HT116; in the test with colon cancer cells HT29; in [2]; in [5]) was “effect of inhibiting proliferation of cancer cells” each time. For the same molecule, the “reactive oxygen species detected, compared with MA-T” value in the test with UM-UC-3 cells [3] (100 ppm NaClO2 (A100) vs 100 ppm NaClO2 + 100 ppm benzethonium chloride) is listed as “equivalent to or more than that with MA-T”. In addition, the “reactive oxygen production (fluorescence plate reader)” value in the test with UM-UC-3 cells [3] (500 ppm NaClO2 alone) is recorded as “remarkable reactive oxygen production”. The “fluorescence of active oxygen in cells (fluorescence microscopy)” value with UM-UC-3 cells [3] (500 ppm NaClO2 alone, final concentration) is on record as “remarkable active oxygen production”. Moreover, the “production of reactive oxygen species on contact with cells (fluorescence intensity)” value in the test with UM-UC-3 cells [3] (over time) was “produced reactive acid species in a time-dependent manner”. Further, in the test with UM-UC-3 cells [4], the “apoptotic rate of UM-UC-3 cells” value was determined as 43.8%. In addition, in the test on UM-UC-3 cells [6] (500 ppm NaClO2, 30, 60, 90, 120 minutes), the “cell proliferation vs contact time” value is recorded as “inhibited in a time-dependent manner”. The “inhibition of cell proliferation” value in the test on UM-UC-3 cells [6] (500 ppm NaClO2, 120 minutes incubation, then 48 hours culture) was “more than 60%”. The “proliferation inhibitory effect vs concentration (viability)” value in test [7] (0-500 ppm) and in test [8] (0-500 ppm) was “concentration-dependent proliferation inhibitory effect” throughout. Moreover, the “pancreatic cancer cell proliferation” value in [7] (setting [13]) and in test [8] (setting [13]) was “almost completely inhibited” in each case. Besides, the results for the cell morphology result in the test with UM-UC-3 cells [9] (0 hours after removal) and in the test with UM-UC-3 cells [9] (24 hours after removal) were “morphological changes” and “regression of cells”, respectively. Also, the “vesicle considered to be an apoptotic vesicle” value with UM-UC-3 cells [9] (24 hours after removal, magnified photomicrograph) is “formation of a vesicle”. The “excised tumor photograph and tumor weight” value in [10] (tumor immersed in 500 ppm NaClO2, excised on day 27) is on record as “increase in bladder tumors was inhibited”. For the same molecule, in [10] (tumor immersed in 500 ppm NaClO2 for 120 minutes before transplantation, measured from day 12), the “proliferation of bladder cancer tumors (tumor volume)” value was “significantly inhibited”. Further, the “proliferation inhibition vs concentration” value in test [11] (then 48 hours culture) is “concentration-dependent proliferation inhibition”. Moreover, the bladder cancer proliferation entry in test [11] (at 500 ppm or more) is recorded as “almost completely inhibited”. The “fraction ratio in subG1 phase” value with UM-UC-3 cells [12] was “significantly increased”.
